How the values were obtained:
[1] = tested on: immortalized human keratinocyte cell line HaCaT; test: MTT in vitro cytotoxicity assay, normal cells; format: cell-based; conditions: 48 h
Protocol: Consequently, the IrL1 complex doses of 1 μM, 3 μM and 5 μM were selected for further experimental analysis. Furthermore, the possible cytotoxic effects of IrL1 on normal cell line were also examined on the immortalized human keratinocyte cell line HaCaT.
Cytotoxicity study of all the synthesized compounds against triple negative breast cancer cells MDA-MB-468 and immortalized human keratinocyte cell line HaCaT were done with a drug incubation period of 48 h by following standard procedure that were mentioned in ESI. ^† Preliminary studies were done to understand the mode of action of the complex to induce cytotoxicity using flow cytometric methods. […]
(§1) In vitro cytotoxicity study was measured by standard MTT assay protocol.1 First the prepared complexes (IrL1-IrL5) were dissolved in 0.1% DMSO followed by dilution with DMEM medium. […] Then the resultant suspension was kept on micro vibrator for 10 min and the absorbance was recorded at λ = 570 nm in ELISA plate reader. […] The data were represented as the growth inhibition percentage i.e. % growth inhibition = 100 − [(AD × 100)/AB], where AD, measured absorbance in wells which contain samples and AB, measured absorbance for blank wells (cells with a medium and a vehicle). […]

[2] = tested on: CT-DNA; test: Ethidium bromide displacement (fluorescence quenching) assay; format: binding, calf
Protocol: The competitive binding of compounds IrL1 to CT-DNA was studied via fluorescence spectroscopy using ethidium bromide (EtBr) as the fluorophore. […] Intrinsic binding constant (Kb), Stern–Volmer quenching constant (Ksv) and apparent binding constant (Kapp) were highlighted in Table 2. […]
Ethidium bromide displacement assay
The ethidium bromide (EtBr) displacement assay was carried out to illustrate the mode of binding between the potent compounds with DNA.4 The apparent binding constant (K app) of the complexe IrL1 to Ct-DNA were calculated using ethidium bromide (EtBr) as a spectral probe in 5 mM Tris-HCl buffer (pH 7.4). The values of the apparent binding constant (K app) were obtained by using the equation (iii):
Kapp × [Complex]50 = kEtBr × [EtBr]⋯⋯⋯(iii)
Where KEtBr is the EtBr binding constant (K EtBr = 1.0 x 107 M-1), and [EtBr] = 8 x 10^-6 M.
Stern-Volmer equation was followed for quantitative determination of the Stern-Volmer quenching constant (K SV).5 Origin (8.5) software was used to plot the fluorescence data to obtain linear plot of I0/I vs. [complex]. The value of KSV was calculated from the following […]
Where I0 = fluorescence intensity in absence of complex and I = fluorescence intensities in presence of complex of concentration [Q].
We are acquainted with the fact that serum albumin proteins are the main component. […]

[3] = Stability study by time-dependent UV-vis spectroscopy; format: physicochemical
Protocol: The stability studies of complex IrL1 were conducted in […] different solvents, i.e. aqueous DMSO (H2O : DMSO = 9 : 1) and aqueous GSH medium (Fig. 3) respectively in presence or absence of different concentrations of NaCl. It is essential that the complexes remain stable in the biological environments of cells, and thus the stability studies were performed. […] It has been reported that many cancer cells become resistant to various drugs by increasing their cellular glutathione level.[28]
For doing the cell culture the cells were retained in DMEM media (Gibco), added with 10% fetal bovine serum (Himedia, India), 1% penicillin and streptomycin and 1% of Glutmax (Gibco, Thermo Scientific, USA) at 37°C in 5% CO2. […]
as §1

- decrease in absorbance ([3]; aqueous DMSO (H2O : DMSO = 9 : 1), after 24 h): 15–30%
Substance: [Iridium(III)-Cp*-2-(naphthalen-1-yl)-1H-imidazo[4,5-f][1,10]phenanthroline]PF6 [IrL1]
- IC50 [1]: 11.4 µM
- Ksv, Stern–Volmer quenching constant ([2]; EtBr-bound CT-DNA): 22000 M⁻¹
- Kapp, apparent DNA binding constant ([2]; competitive displacement of EtBr): 2500 M⁻¹
- effect of GSH on stability ([3]; excess (10 eq.) glutathione, time-dependent UV spectroscopy): GSH didn't have much impact on the stability

From PMC9016803, “Mitochondria-targeted half-sandwich iridium(III)-Cp*-arylimidazophenanthroline complexes as antiproliferative and bioimaging agents against triple negative breast cancer cells MDA-MB-468” (RSC Advances, 2022)
